Laboratory results reported in the supplement of paper PMC10307832.

How the values were obtained:
Test in all cases: relative viability (nuclei count vs DMSO), 5 days (fraction); higher = more cells survive
RO-3306 + Bortezomib = compound: C1=CC2=C(C=CC(=C2)C=C3C(=O)NC(=NCC4=CC=CS4)S3)N=C1 [RO-3306] + CC(C)C[C@H](NC(=O)[C@H](Cc1ccccc1)NC(=O)c1cnccn1)B(O)O [Bortezomib] (partner 0.002 µM)
Outline: (§1)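 Relative viability equals treated-well nuclei counts divided by vehicle-well nuclei counts. Counts came from 4× images of lung cancer cell lines grown in 1536-well plates for 5 days after pin-tool dosing on the day after seeding. Dosing used one drug alone or a fixed anchor-drug dose plus five library-drug doses (not always all listed) in √10 steps, and values are medians of duplicate plates.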

RO-3306 + Tozasertib = compound: C1=CC2=C(C=CC(=C2)C=C3C(=O)NC(=NCC4=CC=CS4)S3)N=C1 [RO-3306] + Cc1cc(Nc2cc(N3CCN(C)CC3)nc(Sc3ccc(NC(=O)C4CC4)cc3)n2)n[nH]1 [Tozasertib] (partner 0.1 µM)
Outline: as §1

RO-3306 + Olaparib = compound: C1=CC2=C(C=CC(=C2)C=C3C(=O)NC(=NCC4=CC=CS4)S3)N=C1 [RO-3306] + O=C(c1cc(Cc2n[nH]c(=O)c3ccccc23)ccc1F)N1CCN(C(=O)C2CC2)CC1 [Olaparib] (partner 8 µM)
Outline: as §1

[1] = compound: O=S(=O)(c1ccccc1)N(CC(F)(F)F)c1ccc(C(O)(C(F)(F)F)C(F)(F)F)cc1 + COc1cccc2cc(-c3nc([C@H]4CC[C@H](C(=O)O)CC4)n4ncnc(N)c34)[nH]c12 [OSI-027] (partner 0.5 µM)
Outline: as §1

Row | Cell Line | relative viability (RO-3306 + Bortezomib; first compound 0.01 µM) | relative viability (RO-3306 + Bortezomib; first compound 0.03162 µM) | relative viability (RO-3306 + Bortezomib; first compound 0.1 µM) | relative viability (RO-3306 + Bortezomib; first compound 0.3162 µM) | relative viability (RO-3306 + Bortezomib; first compound 1 µM) | relative viability (RO-3306 + Tozasertib; first compound 0.01 µM) | relative viability (RO-3306 + Tozasertib; first compound 0.03162 µM) | relative viability (RO-3306 + Tozasertib; first compound 0.1 µM) | relative viability (RO-3306 + Tozasertib; first compound 0.3162 µM) | relative viability (RO-3306 + Tozasertib; first compound 1 µM) | relative viability (RO-3306 + Olaparib; first compound 0.01 µM) | relative viability (RO-3306 + Olaparib; first compound 0.03162 µM) | relative viability (RO-3306 + Olaparib; first compound 0.1 µM) | relative viability (RO-3306 + Olaparib; first compound 0.3162 µM) | relative viability (RO-3306 + Olaparib; first compound 1 µM) | relative viability ([1]; first compound 0.8 µM) | relative viability ([1]; first compound 2.53 µM) | relative viability ([1]; first compound 8 µM)
1 | NCI-H520 | 0.802 | 0.369 | 0.5 | 0.582 | 0.435 | 0.44 | 0.481 | 0.39 | 0.426 | 0.394 | 0.359 | 0.244 | 0.315 | 0.344 | 0.351 | 0.298 | 0.21 | 0.281
2 | NCI-H2009 | 0.994 | 0.82 | 1 | 1.06 | 1 | 0.816 | 0.707 | 0.722 | 0.671 | 0.707 | 0.789 | 0.684 | 0.694 | 0.796 | 0.727 | 0.588 | 0.567 | 0.568
3 | RERF-LC-KJ | 1.3 | 0.952 | 1.01 | 0.987 | 1.01 | 0.634 | 0.434 | 0.546 | 0.521 | 0.463 | 0.888 | 0.902 | 0.837 | 0.835 | 1.08 | 0.545 | 0.599 | 0.556
4 | NCI-H650 | 0.662 | 0.635 | 0.703 | 0.764 | 0.694 | 0.682 | 0.695 | 0.718 | 0.739 | 0.603 | 0.316 | 0.373 | 0.37 | 0.382 | 0.361 | 0.533 | 0.498 | 0.532
5 | NCI-H3122 | 0.952 | 1.01 | 1.06 | 1.03 | 0.738 | 0.449 | 0.413 | 0.42 | 0.475 | 0.284 | 0.707 | 0.561 | 0.604 | 0.61 | 0.604 | 1.18 | 0.807 | 1.14
6 | LCLC-103H | 1.06 | 1.03 | 1.01 | 0.927 | 0.815 | 0.439 | 0.45 | 0.405 | 0.458 | 0.499 | 0.836 | 0.776 | 0.772 | 0.733 | 0.784 | 0.507 | 0.505 | 0.439
7 | NCI-H2347 | 1.07 | 0.633 | 0.98 | 0.823 | 0.711 | 0.616 | 0.616 | 0.628 | 0.525 | 0.514 | 0.598 | 0.596 | 0.565 | 0.464 | 0.594 | 0.699 | 0.445 | 0.302
8 | NCI-H322M | 1.17 | 1.12 | 1.19 | 1.32 | 1.22 | 0.549 | 0.467 | 0.443 | 0.476 | 0.432 | 0.817 | 0.743 | 0.773 | 0.785 | 0.696 | 0.61 | 0.501 | 0.506
